Test results published in article PMC4012739, “Targeted inhibition of cell-surface serine protease Hepsin blocks prostate cancer bone metastasis” (Oncotarget, 2014).

Target: T1, Hepsin (Homo sapiens, UniProt P05981)
T1 construct: gene HPN; Extracellular part of human Hepsin (amino acids 45-417), SRCR and trypsin-like serine protease domains
Experiment: chromogenic peptide (pyroGlu-Pro-Arg-pNA) protease assay with purified recombinant Hepsin; also pro-HGF cleavage
Format: biochemical

T1 sequence (P05981 45-162): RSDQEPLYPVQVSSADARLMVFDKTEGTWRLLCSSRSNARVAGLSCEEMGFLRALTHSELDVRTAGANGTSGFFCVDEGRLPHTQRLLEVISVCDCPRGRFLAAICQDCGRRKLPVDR
T1 sequence (P05981 163-417): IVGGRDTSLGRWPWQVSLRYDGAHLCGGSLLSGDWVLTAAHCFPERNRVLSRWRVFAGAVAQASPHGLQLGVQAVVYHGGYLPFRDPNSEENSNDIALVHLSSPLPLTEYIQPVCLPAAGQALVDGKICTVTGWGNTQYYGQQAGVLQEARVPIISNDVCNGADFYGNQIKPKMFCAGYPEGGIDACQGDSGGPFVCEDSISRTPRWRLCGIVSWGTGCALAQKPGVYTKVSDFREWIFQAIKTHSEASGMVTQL

IC50: 330 nM
Structure (SMILES): Brc1ccc(C2Nc3cccc4cccc(c34)N2)cc1 [HepIn-13]
